Experimental findings from publication PMC7766762, “New Eudesmane-Type Sesquiterpene Glycosides from the Leaves of Aster koraiensis” (Plants, 2020) are described below.

Data set [1] relates to LPS-stimulated PGE2 production in RAW 264.7 macrophages. The data set can be described thus: LPS-induced PGE2 production in RAW 264.7 macrophages (EIA kit). The class given is cell-based. The following applies: for IC50 / inhibition at 100 µM: Mus musculus, RAW264.7, RAW 264.7; for IC50: LPS 1 μg/mL, 24 h; for inhibition at 100 µM: compound 100 μM and LPS 1 μg/mL, pretreated 1 h, incubated 24 h, read-out: Inhibition Rate (%) PGE2. The protocol:
(§1) All the isolates 1–9 obtained from the leaves of A. koraiensis were evaluated for their inhibitory effects of LPS-stimulated NO and PGE2 production in RAW 264.7 macrophages at non-toxic concentrations (Table 3).
(§2) Figure 5 Inhibitory effects of compound 7 on LPS-stimulated NO (A) and PGE2 productions (B) in RAW 264.7 macrophages. Cells were pretreated with different concentrations (25, 50, or 100 μM) of compound 7 for 1 h, then with LPS (1 μg/mL), and then were incubated for 24 h. l-N^6-(1-Iminoethyl)lysine (l-NIL, 10 μM) and N-[2-(cyclohexyloxy)-4-nitrophenyl]-methanesulfonamide (NS-398, 10 μM) were used as positive NO and PGE2 production inhibitors, respectively.
PGE2 levels in cell culture mediums were determined using EIA kits (R&D Systems, MN) as reported in the previous paper.

The nature of data set [2]: Cell viability (MTT assay) in LPS-treated RAW 264.7 macrophages. Format: cell-based. To be noted: mouse, RAW 264.7 macrophages treated with LPS, compound 100 μM and LPS 1 μg/mL, pretreated 1 h, incubated 24 h, read-out: Cell Viabilities (%). The protocol: [table] Cell viability and nitrite levels were measured using MTT and Griess reaction assays, respectively.
For orientation: Formazan colour is commonly taken as a measure of viable cells.

Data set [3] has as its system LPS-stimulated NO production in RAW 264.7 macrophages. The data set can be described thus: LPS-induced NO production in RAW 264.7 macrophages (Griess reaction). Format: cell-based. The following applies: for IC50 / inhibition at 100 µM: Mus musculus, RAW264.7, RAW 264.7; for IC50: LPS 1 μg/mL, 24 h; for inhibition at 100 µM: compound 100 μM and LPS 1 μg/mL, pretreated 1 h, incubated 24 h, read-out: Inhibition Rate (%) NO. The procedure:
as §1, §2
Cell viability and nitrite levels were measured using MTT and Griess reaction assays, respectively.
For orientation: The Griess reaction detects nitrite, a stable product of nitric oxide.

Where [4] appears, read: LPS-stimulated RAW 264.7 cells, non-toxic concentrations.

Entries after “also recorded” stand apart in the source; their conditions may differ.

A word on the IC50: it is the concentration needed to halve the response being measured. A lower IC50 goes with greater potency in that assay. The inhibition is the relative decrease from the control value, in per cent. Take `CC1=CC[C@@H](O)[C@]2(C)[C@@H](OC(=O)/C=C\c3ccc(O)cc3)C[C@@H](C(C)C)[C@@H](O[C@@H]3O[C@H](CO)[C@@H](O)[C@H](O)[C@H]3O)[C@@H]12` [Compound 6, (1R,5S,6R,7S,9S,10R)-9-O-(Z-p-coumaroyl)-1,6,9-trihydroxy-eudesm-3-ene-6-O-β-D-glucopyranoside]: in data set [1], the IC50 is above 100 µM and the inhibition at 100 µM was found to be 2.16%. In addition, the viability at 24 h, 100 μM in data set [2] turned out to be 108%. In data set [3], the IC50 is above 100 µM and the inhibition at 100 µM came to 7.01%.
With `CC1=CC[C@@H](O)[C@]2(C)[C@@H](OC(=O)/C=C/c3ccc(O)cc3)C[C@@H](C(C)C)[C@@H](O[C@@H]3O[C@H](CO)[C@@H](O)[C@H](O)[C@H]3O)[C@@H]12` [Compound 5, (1R,5S,6R,7S,9S,10R)-9-O-(E-p-coumaroyl)-1,6,9-trihydroxy-eudesm-3-ene-6-O-β-D-glucopyranoside], the IC50 in data set [1] and in data set [3] was above 100 µM each time. Besides, the inhibition at 100 µM in data set [1] was found to be 0%; in data set [3], 8.39%. Moreover, the viability at 24 h, 100 μM in data set [2] worked out at 104%.
In the case of `CC1=CC[C@@H](O)[C@@]2(C)[C@H]1[C@H](O[C@@H]1O[C@H](CO)[C@@H](O)[C@H](O)[C@H]1O)[C@H](C(C)C)C[C@@H]2O` [Compound 2, (1R,5S,6R,7S,9S,10R)-1,6,9-trihydroxy-eudesm-3-ene-6-O-β-D-glucopyranoside], the IC50 in data set [1] and in data set [3] was above 100 µM each time. For the same compound, the inhibition at 100 µM in data set [1] turned out to be 0%; in data set [3], 3.2%. Moreover, in data set [2], the viability at 24 h, 100 μM was 105%.
On to `O=C(/C=C/c1ccc(O)c(O)c1)O[C@@H]1[C@H](O)C[C@@](O)(C(=O)O)C[C@H]1OC(=O)/C=C/c1ccc(O)c(O)c1` [Compound 9, 4,5-dicaffeoylquinic acid], for which the IC50 in data set [1] and in data set [3] was above 100 µM in each case. Also, the inhibition at 100 µM is 20.4% in data set [1] and 4.64% in data set [3]. Further, the viability at 24 h, 100 μM in data set [2] worked out at 100%.
For the compound `O=C(/C=C/c1ccc(O)c(O)c1)O[C@@H]1C[C@](O)(C(=O)O)C[C@@H](OC(=O)/C=C/c2ccc(O)c(O)c2)[C@H]1O` [Compound 8, 3,5-dicaffeoylquinic acid], in data set [1], the IC50 was above 100 µM and the inhibition at 100 µM came out at 1.27%. Besides, the viability at 24 h, 100 μM in data set [2] is 93.4%. Besides, in data set [3], the IC50 was above 100 µM and the inhibition at 100 µM is 6.25%.
Regarding `COc1cc(/C=C/C(=O)O[C@H]2C[C@@H](C(C)C)[C@@H](O[C@@H]3O[C@H](CO)[C@@H](O)[C@H](O)[C@H]3O)[C@H]3C(C)=CC[C@@H](O)[C@]23C)ccc1O` [Compound 7, (1R,5S,6R,7S,9S,10R)-9-O-(E-feruloyl)-1,6,9-trihydroxy-eudesm-3-ene-6-O-β-D-glucopyranoside], the “Inhibitory effect on PGE2 production (in words)” value in data set [1] (setting [4]) was “weak inhibitory effects; also recorded: weak inhibitory activities”. Also, in data set [1], the IC50 was above 100 µM and the inhibition at 100 µM was 41.3%. Also, the viability at 24 h, 100 μM in data set [2] is 89.3%. In addition, the “Inhibitory effect on NO production (in words)” value in data set [3] (setting [4]) is recorded as “weak inhibitory effects; also recorded: weak inhibitory activities”. For the same compound, in data set [3], the half-inhibitory concentration (IC50) was 95.7 µM and the inhibition at 100 µM came out at 53.1%.
Take `CC1=CC[C@@H](O)[C@@]2(C)[C@H]1[C@H](O[C@@H]1O[C@H](CO)[C@@H](O)[C@H](O)[C@H]1O)[C@H](C(C)(C)O)C[C@@H]2O` [Compound 4, (1R,5S,6S,7R,9S,10R)-1,6,9,11-tetrahydroxy-eudesm-3-ene-6-O-β-D-glucopyranoside]: the IC50 in data set [1] and in data set [3] was above 100 µM in each case. Besides, the inhibition at 100 µM came to 6.15% in data set [1] and 1.31% in data set [3]. Also, in data set [2], the viability at 24 h, 100 μM is 102%.
For orientation: melting point means the temperature of the solid-liquid transition. In the case of `CC1=CCC(OC2OC(CO)C(O)C(O)C2O)C2(C)C(O)CC(C(C)C)C(OC3OC(CO)C(O)C(O)C3O)C12` [Compound 1, (1R,5S,6R,7S,9S,10S)-1,6,9-trihydroxy-eudesm-3-ene-1,6-di-O-β-D-glucopyranoside], the melting point is 167.2 °C. In data set [1], the IC50 is above 100 µM and the inhibition at 100 µM worked out at 0%. Besides, the viability at 24 h, 100 μM in data set [2] is 102%. Moreover, in data set [3], the IC50 was above 100 µM and the inhibition at 100 µM is 1.79%.
Take `CC1=CCC(OC2OC(CO)C(O)C(O)C2O)C2(C)C(O)CC(C(C)(C)O)C(OC3OC(CO)C(O)C(O)C3O)C12` [Compound 3, (1R,5S,6S,7R,9S,10S)-1,6,9,11-tetrahydroxy-eudesm-3-ene-1,6-di-O-β-D-glucopyranoside]: the melting point is 230 °C. Further, in data set [1], the IC50 was above 100 µM and the inhibition at 100 µM worked out at 10.5%. For the same compound, the viability at 24 h, 100 μM in data set [2] was 94%. Also, in data set [3], the IC50 is above 100 µM and the inhibition at 100 µM was found to be 4.66%.
